Measurements as given in PubChem BioAssay AID248 (DTP/NCI, 2004).
Where “and” joins values, the source holds several entries; their conditions need not be identical. Equal entries are not always repeated. Inconclusive results and toxic doses are left out.

System: L1210 leukemia ip in BDF1 mice, survival T/C
Experiment: NCI In Vivo Anticancer Drug Screen. Data for tumor model L1210 Leukemia (intraperitoneal) in B6D2F1 (BDF1) mice
Conditions: endpoint: mean survival time, higher = longer survival
Outline: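 Survival endpoint. Drug-treated group vs vehicle group, expressed as T divided by C. Tumor passaged by transplantation.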

[1] = dose: 50.0 mg/kg/injection, schedule: Q01DX001 (ip), vehicle: carboxymethylcellulose (CMC)
[2] = dose: 100.0 mg/kg/injection, schedule: Q01DX001 (ip), vehicle: carboxymethylcellulose (CMC)
[3] = dose: 100.0 mg/kg/injection, schedule: Q01DX001 (ip), vehicle: saline
[4] = dose: 200.0 mg/kg/injection, schedule: Q01DX001 (ip), vehicle: carboxymethylcellulose (CMC)
[5] = dose: 200.0 mg/kg/injection, schedule: Q01DX001 (ip), vehicle: saline
[6] = dose: 400.0 mg/kg/injection, schedule: Q01DX001 (ip), vehicle: carboxymethylcellulose (CMC)
[7] = dose: 400.0 mg/kg/injection, schedule: Q01DX001 (ip), vehicle: saline
[8] = dose: 100.0 mg/kg/injection, schedule: Q01DX009 (ip), vehicle: saline with Tween-80
[9] = dose: 100.0 mg/kg/injection, schedule: Q04DX003 (ip), vehicle: saline with Tween-80
[10] = dose: 200.0 mg/kg/injection, schedule: Q01DX009 (ip), vehicle: saline with Tween-80
[11] = dose: 200.0 mg/kg/injection, schedule: Q04DX003 (ip), vehicle: saline with Tween-80
[12] = dose: 400.0 mg/kg/injection, schedule: Q01DX009 (ip), vehicle: saline with Tween-80
[13] = dose: 400.0 mg/kg/injection, schedule: Q04DX003 (ip), vehicle: saline with Tween-80
[14] = dose: 100.0 mg/kg/injection, schedule: Q01DX009 (ip), vehicle: Klucel (hydroxypropylcellulose) (HPC)
[15] = dose: 150.0 mg/kg/injection, schedule: Q01DX001 (ip), vehicle: saline
[16] = dose: 75.0 mg/kg/injection, schedule: Q01DX001 (ip), vehicle: saline
[17] = dose: 100.0 mg/kg/injection, schedule: Q04DX003 (ip), vehicle: Klucel (hydroxypropylcellulose) (HPC)
[18] = dose: 200.0 mg/kg/injection, schedule: Q04DX003 (ip), vehicle: Klucel (hydroxypropylcellulose) (HPC)
[19] = dose: 100.0 mg/kg/injection, schedule: Q01DX001 (ip), vehicle: Klucel (hydroxypropylcellulose) (HPC)
[20] = dose: 200.0 mg/kg/injection, schedule: Q01DX001 (ip), vehicle: Klucel (hydroxypropylcellulose) (HPC)

With NC(CSC(c1ccccc1)c1ccccc1)C(=O)O (stereo unspecified) the T/C (dose: 10.0 mg/kg/injection, schedule: Q01DX015 (ip), vehicle: saline) was 97 % of control, the T/C (dose: 20.0 mg/kg/injection, schedule: Q01DX015 (ip), vehicle: saline) was 91 % of control and the T/C (dose: 40.0 mg/kg/injection, schedule: Q01DX015 (ip), vehicle: saline) was 95 % of control. For the same molecule, the T/C [1] was 98 % of control, the T/C (dose: 79.0 mg/kg/injection, schedule: Q01DX015 (ip), vehicle: saline) was 92 % of control and the T/C [2] was 101 % of control. The T/C [3] was 101 % of control, the T/C (dose: 158.0 mg/kg/injection, schedule: Q01DX015 (ip), vehicle: saline) was 95 % of control and the T/C [4] was 87 % of control. For the same molecule, the T/C [5] was 100 % of control, the T/C (dose: 316.0 mg/kg/injection, schedule: Q01DX015 (ip), vehicle: saline) was 98 % of control and the T/C [6] was 87 % of control. For the same molecule, the T/C [7] was 101 % of control and the T/C (dose: 632.0 mg/kg/injection, schedule: Q01DX015 (ip), vehicle: saline) was 97 % of control.

In the case of OC1CSC1.[Cl][Hg][Cl], the T/C (dose: 5.0 mg/kg/injection, schedule: Q01DX001 (ip), vehicle: carboxymethylcellulose (CMC)) was 94 % of control, the T/C (dose: 10.0 mg/kg/injection, schedule: Q01DX001 (ip), vehicle: carboxymethylcellulose (CMC)) was 100 % of control and the T/C (dose: 20.0 mg/kg/injection, schedule: Q01DX001 (ip), vehicle: carboxymethylcellulose (CMC)) was 91 % of control.

For CCN(CCNC(=O)NC(C)(C)C)c1ccccc1, the T/C [8] was 115 % of control and 91 % of control, the T/C (dose: 100.0 mg/kg/injection, schedule: Q04DX002 (ip), vehicle: saline with Tween-80) was 96 % of control and 100 % of control and the T/C [9] was 97 % of control. The T/C [10] was 97 % of control and 91 % of control, the T/C (dose: 200.0 mg/kg/injection, schedule: Q04DX002 (ip), vehicle: saline with Tween-80) was 96 % of control and 97 % of control and the T/C [11] was 106 % of control. For the same molecule, the T/C [12] was 97 % of control and 88 % of control, the T/C (dose: 400.0 mg/kg/injection, schedule: Q04DX002 (ip), vehicle: saline with Tween-80) was 94 % of control and 89 % of control and the T/C [13] was 92 % of control.

For CCCCCCCCCCOc1ccc(OCCCCCCCCC)cc1, the T/C [9] was 94 % of control, the T/C [11] was 100 % of control and the T/C [13] was 87 % of control.

In the case of COC1=C(Br)[C@H](O)[C@](O)(CC#N)C=C1Br, the T/C (dose: 12.5 mg/kg/injection, schedule: Q01DX009 (ip), vehicle: saline) was 97 % of control, the T/C (dose: 25.0 mg/kg/injection, schedule: Q01DX001 (ip), vehicle: Klucel (hydroxypropylcellulose) (HPC)) was 97 % of control and the T/C (dose: 25.0 mg/kg/injection, schedule: Q01DX009 (ip), vehicle: Klucel (hydroxypropylcellulose) (HPC)) was 101 % of control. The T/C (dose: 25.0 mg/kg/injection, schedule: Q01DX009 (ip), vehicle: saline) was 110 % of control, the T/C (dose: 44.0 mg/kg/injection, schedule: Q01DX001 (ip), vehicle: saline) was 103 % of control and the T/C (dose: 50.0 mg/kg/injection, schedule: Q01DX001 (ip), vehicle: Klucel (hydroxypropylcellulose) (HPC)) was 104 % of control. The T/C (dose: 50.0 mg/kg/injection, schedule: Q01DX009 (ip), vehicle: Klucel (hydroxypropylcellulose) (HPC)) was 94 % of control, the T/C (dose: 50.0 mg/kg/injection, schedule: Q01DX009 (ip), vehicle: saline) was 107 % of control and the T/C (dose: 66.0 mg/kg/injection, schedule: Q01DX001 (ip), vehicle: saline) was 106 % of control. The T/C [3] was 117 % of control and 229 % of control, the T/C [14] was 108 % of control and the T/C (dose: 100.0 mg/kg/injection, schedule: Q01DX009 (ip), vehicle: saline) was 91 % of control. For the same molecule, the T/C [15] was 121 % of control.

CCCNC(=O)Nc1cc(Cl)ccc1OC was tested, and the T/C [8] was 100 % of control, the T/C [9] was 95 % of control and the T/C [10] was 94 % of control. The T/C [11] was 103 % of control, the T/C [12] was 96 % of control and the T/C [13] was 94 % of control.

With NC(=S)N/N=C\C(=N/NC(N)=S)C(O)CO (stereo unspecified) the T/C [16] was 97 % of control and the T/C [15] was 101 % of control.

With CC1CC(C)(C)N=C(CCC[N+](=O)[O-])O1 (stereo unspecified) the T/C (dose: 200.0 mg/kg/injection, schedule: Q04DX003 (ip), vehicle: other) was 103 % of control and the T/C (dose: 400.0 mg/kg/injection, schedule: Q04DX003 (ip), vehicle: other) was 88 % of control.

With Cc1ccc(O)c(S(=O)(=O)F)c1 the T/C [17] was 104 % of control, the T/C [18] was 102 % of control and the T/C (dose: 400.0 mg/kg/injection, schedule: Q04DX003 (ip), vehicle: Klucel (hydroxypropylcellulose) (HPC)) was 102 % of control.

For CCCCCCCCCCCCCCCCS(=O)(=O)N/N=C/c1ccc([N+](=O)[O-])cc1, the T/C [2] was 94 % of control, the T/C [4] was 87 % of control and the T/C [6] was 105 % of control.

For CC(=O)C1(O)CCC2C3CCC4=CC(=O)CCC4(C)C3CC(=O)C21C (stereo unspecified), the T/C (dose: 75.0 mg/kg/injection, schedule: Q01DX001 (ip), vehicle: other) was 95 % of control, the T/C (dose: 150.0 mg/kg/injection, schedule: Q01DX001 (ip), vehicle: other) was 93 % of control and the T/C (dose: 300.0 mg/kg/injection, schedule: Q01DX001 (ip), vehicle: other) was 95 % of control.

For c1cc[c]([Pb]([c]2ccccc2)([c]2ccccc2)[c]2ccccc2)cc1, the T/C (dose: 50.0 mg/kg/injection, schedule: Q04DX002 (ip), vehicle: Klucel (hydroxypropylcellulose) (HPC)) was 103 % of control, the T/C (dose: 100.0 mg/kg/injection, schedule: Q04DX002 (ip), vehicle: Klucel (hydroxypropylcellulose) (HPC)) was 103 % of control and the T/C (dose: 200.0 mg/kg/injection, schedule: Q04DX002 (ip), vehicle: Klucel (hydroxypropylcellulose) (HPC)) was 113 % of control and 115 % of control. The T/C (dose: 400.0 mg/kg/injection, schedule: Q04DX002 (ip), vehicle: Klucel (hydroxypropylcellulose) (HPC)) was 101 % of control.

In the case of O=NN(Cc1ccccc1)C(c1ccccc1)S(=O)(=O)O (stereo unspecified), the T/C (dose: 75.0 mg/kg/injection, schedule: Q01DX009 (ip), vehicle: saline) was 87 % of control, the T/C [3] was 112 % of control and the T/C (dose: 150.0 mg/kg/injection, schedule: Q01DX009 (ip), vehicle: saline) was 87 % of control. For the same molecule, the T/C [5] was 100 % of control, the T/C (dose: 300.0 mg/kg/injection, schedule: Q01DX009 (ip), vehicle: saline) was 97 % of control and the T/C [7] was 93 % of control.

With COc1ncnc(Cl)c1[N+](=O)[O-] the T/C (dose: 50.0 mg/kg/injection, schedule: Q04DX003 (ip), vehicle: Klucel (hydroxypropylcellulose) (HPC)) was 92 % of control, the T/C [17] was 92 % of control and 86 % of control and the T/C [18] was 97 % of control and 91 % of control.

With CC(C)(C(=O)Oc1ccccc1)C(=O)Oc1ccccc1 the T/C (dose: 50.0 mg/kg/injection, schedule: Q01DX009 (ip), vehicle: saline with Tween-80) was 95 % of control, the T/C [8] was 100 % of control and the T/C [10] was 88 % of control.

For O=[N+]([O-])c1ccc(O)c(N=Cc2ccccc2O)c1, the T/C [2] was 102 % of control, the T/C [4] was 96 % of control and the T/C [6] was 96 % of control.

For OB(O)C1=CC(c2ccccc2)(c2ccccc2)N=C1, the T/C [19] was 103 % of control, the T/C [20] was 94 % of control and the T/C (dose: 400.0 mg/kg/injection, schedule: Q01DX001 (ip), vehicle: Klucel (hydroxypropylcellulose) (HPC)) was 92 % of control.

With CCCOC(=O)COc1ccc(Cl)cc1 the T/C [14] was 97 % of control, the T/C (dose: 200.0 mg/kg/injection, schedule: Q01DX009 (ip), vehicle: Klucel (hydroxypropylcellulose) (HPC)) was 95 % of control and the T/C (dose: 400.0 mg/kg/injection, schedule: Q01DX009 (ip), vehicle: Klucel (hydroxypropylcellulose) (HPC)) was 104 % of control.

With O=C(COc1ccc(Cl)c(Cl)c1)Nc1ccc[n+](Cc2cccc(S(=O)(=O)F)c2)c1 the T/C [19] was 96 % of control and the T/C [20] was 97 % of control.

In the case of CCOc1ccn(C)c(=O)n1, the T/C (dose: 50.0 mg/kg/injection, schedule: Q01DX001 (ip), vehicle: saline) was 90 % of control and the T/C [3] was 95 % of control.

c1ccc2c[n+](Cc3nc4ccccc4[nH]3)ccc2c1 was tested, and the T/C [16] was 101 % of control.

CCOC(=O)CCC[P+](c1ccccc1)(c1ccccc1)c1ccccc1 was tested, and the T/C [8] was 107 % of control and the T/C [10] was 113 % of control.

In the case of CC(=S)SCC(C)C, the T/C [1] was 101 % of control, the T/C [2] was 101 % of control and the T/C [4] was 104 % of control. The T/C [6] was 93 % of control.

With C1CCc2c(sc3c2CCCC3)C1 the T/C [1] was 98 % of control, the T/C [2] was 104 % of control and the T/C [4] was 98 % of control. For the same molecule, the T/C [6] was 107 % of control.
